Like-named read-outs stand apart in the source and are kept apart here.
What was measured:
[1] = Critical micellar concentration (CMC) of saponins, ANS fluorimetric method; format: physicochemical; conditions: for CMC: QS saponins derived from Quillaja saponaria
Experimental: The critical micellar concentration (CMC) of saponin SO1861 derived from Saponaria officinalis (SO) and QS saponins derived from Quillaja saponaria (QS) (Table A5) was determined by the method of DeVendittis et al. (A fluorimetric method for the estimation of the critical micelle concentration of surfactants, Analytical Biochemistry, Volume 115, Issue 2, August 1981, Pages 278-286) as follows:
The emission spectrum of 8-Anilinonaphthalene-1-sulfonic acid (ANS) in either purified water (MQ) or PBS (Dulbecco's PBS+/+) was determined at dry weight concentrations of saponins ranging from […] to cover the range below and above the CMC. Above the CMC, the fluorescence yield of ANS increases and the wavelength of maximum emission decreases due to portioning of the fluorescent dye into micelles. Fluorescence yields were recorded on a Fluoroskan Ascent FL (Thermo Scientific) at an excitation wavelength of 355 nm, and an emission wavelength of 460 nm. 6 μg at a concentration of 75.86 μM of ANS were used per sample and measurement.

[2] = test system: endosomal escape of effector molecule; assay: Endosomal escape enhancing activity of saponins (cell-based assays, in vivo models); conditions: in vivo animal tumor models, LDL lowering therapy models, free or cleavably conjugated saponin
[3] = Release kinetic assay of saponin from linker at various pH; format: physicochemical; conditions: pH 4.0, 37° C.
Experimental: SO1861-SC-Mal (blocked) (saponin covalently coupled to the linker through an acid-labile semicarbazone (sc) bond) was tested for efficient pH sensitive release with a release kinetic assay and compared with release kinetics for SO1861-EMCH (blocked) (saponin covalently coupled to the linker through an acid-labile hydrazone bond). The assay was performed in buffers with pH 7.4, pH 6.0 pH, pH 5.0, pH 4.0 at 37° C. for 24 hours.

[4] = test system: A2058 cells (EGFR-/HER2+/-/CD71+); assay: Cell viability / cell killing (MTS) assay on A2058 cells; format: cell-based, human
Experimental: (§1) Cells were seeded in a 96 well plate at 5.000-10.000 c/w in 100 μL/well and incubated overnight at 37° C. The next day 10× concentrated treatment-mix samples were prepared in PBS, which contain antibody-conjugated SO1861 (i.e. a ‘binding molecule’ or an ‘endosomal escape enhancing conjugate’ of the invention) and targeted-toxin (i.e. a ‘binding molecule’) both at 10× final concentration. The media was removed from the cell culture plate and replaced by 180 μL culture media, followed by the addition of 20 μL treatment-mix/well. For control, 10× treatment-mix samples were prepared that contained the corresponding concentrations of only antibody-conjugated SO1861, only antibody, only SO1861, only targeted-toxin, or PBS without compound as vehicle control. After treatment the cells were incubated for 72 hr at 37° C. before the cell viability was determined by a MTS-assay, performed according to the manufacturer's instruction (CellTiter 96® AQueous One Solution Cell Proliferation Assay, Promega). Briefly, the MTS solution was diluted 20× in DMEM without phenol red (PAN-Biotech GmbH) supplemented with 10% FBS (PAN-Biotech GmbH). The cells were washed once with 200 μL PBS per well, after which 100 μL diluted MTS solution was added per well. The plate was incubated for approximately 20-30 minutes at 37° C. Subsequently, the optical density at 492 nm was measured on a Thermo Scientific Multiskan FC plate reader (Thermo Scientific). For quantification the background signal of ‘medium only’ wells was subtracted from all other wells, before the ratio of untreated/treated cells was calculated, by dividing the background corrected signal of untreated wells over the background corrected signal of the treated wells.
(§2) After treatment the cells were incubated for 72 hr at 37° C. before the cell viability was determined by a MTS-assay, performed according to the manufacturer's instruction (CellTiter 96@AQueous One Solution Cell Proliferation Assay, Promega). Briefly, the MTS solution was diluted 20× in DMEM without phenol red (PAN-Biotech GmbH) supplemented with 10% FBS. The cells were washed once with 200 μL/PBS well, after which 100 μL diluted MTS solution was added/well. The plate was incubated for approximately 20-30 minutes at 37° C. Subsequently, the OD at 492 nm was measured on a Thermo Scientific Multiskan FC plate reader (Thermo Scientific). For quantification the background signal of ‘medium only’ wells was subtracted from all other wells, before the cell viability percentage of treated/untreated cells was calculated, by dividing the background corrected signal of treated wells over the background corrected signal of the untreated wells (×100).

[5] = test system: A431 cells (EGFR++/HER2+/-/CD71+); assay: Cell viability / cell killing (MTS) assay on A431 cells; format: cell-based, human
Experimental: as §1, §2

[6] = test system: SK-BR-3 cells (HER2++/EGFR+/CD71+); assay: Cell killing (MTS) assay on SK-BR-3 cells; format: cell-based, human
Experimental: as §2

[7] = test system: MDA-MB-468 cells (HER2-/EGFR++/CD71+); assay: Cell killing (MTS) assay on MDA-MB-468 cells; format: cell-based, human
Experimental: as §2

EGFR (human) = EGFR (human) (UniProt P00533); assay: cell-based or functional assay

Molecule: CC(=O)O[C@@H]1[C@H](O[C@@H]2O[C@@H](C)[C@H](O)[C@@H](O)[C@H]2O)[C@@H](O[C@@H]2O[C@@H](C)[C@H](O[C@@H]3OC[C@@H](O)[C@H](O[C@@H]4OC[C@](O)(CO)[C@H]4O)[C@H]3O)[C@@H](O[C@@H]3O[C@H](CO)[C@@H](O)[C@H](O)[C@H]3O)[C@H]2O)[C@H](OC(=O)[C@]23CCC(C)(C)C[C@H]2C2=CC[C@@H]4[C@@]5(C)CC[C@H](O[C@@H]6O[C@H](C(=O)O)[C@@H](O)[C@H](O[C@@H]7OC[C@@H](O)[C@H](O)[C@H]7O)[C@H]6O[C@@H]6O[C@H](CO)[C@H](O)[C@H](O)[C@H]6O)[C@@](C)(C=O)[C@@H]5CC[C@@]4(C)[C@]2(C)C[C@H]3O)O[C@@H]1C [QS7, QS-7]
- CMC [1]: 230 ± 25 µM

Molecule: CCC(C)C(CC(O)CC(=O)OC1C(C)OC(OC(=O)C23CCC(C)(C)CC2C2=CCC4C5(C)CCC(OC6OC(C(=O)O)C(O)C(OC7OCC(O)C(O)C7O)C6OC6OC(CO)C(O)C(O)C6O)C(C)(C=O)C5CCC4(C)C2(C)CC3O)C(OC2OC(C)C(OC3OCC(O)C(OC4OCC(O)(CO)C4O)C3O)C(OC3OC(CO)C(O)C(O)C3O)C2O)C1O)OC(=O)CC(O)CC(OC1OC(CO)C(O)C1O)C(C)CC (stereo not shown) [QS18, QS-18]
- CMC [1]: 68 ± 7 µM

Molecule: C[C@@H]1O[C@@H](O[C@H]2[C@H](OC(=O)[C@]34CCC(C)(C)C[C@H]3C3=CC[C@@H]5[C@@]6(C)CC[C@H](O[C@H]7O[C@H](C(=O)O)[C@@H](O)[C@H](O[C@@H]8OC[C@@H](O)[C@H](O)[C@H]8O)[C@H]7O[C@@H]7O[C@H](CO)[C@H](O)[C@H](O)[C@H]7O)[C@@](C)(C=O)[C@@H]6CC[C@@]5(C)[C@]3(C)CC4)O[C@H](C)[C@H](O[C@@H]3O[C@H](C)[C@@H](O)[C@H](O)[C@H]3O)[C@@H]2O)[C@H](O)[C@H](O)[C@H]1O[C@@H]1OC[C@@H](O)[C@H](O[C@@H]2OC[C@@H](O)[C@H](O)[C@H]2O)[C@H]1O [SA1641]
- endosomal escape enhancing activity [2]: activity was confirmed

Molecule: CC(=O)OC1C(C)OC(OC2C(C)OC(OC(=O)[C@]34CCC(C)(C)CC3C3=CCC5[C@@]6(C)CC[C@H](OC7OC(C(=O)O)C(O)C(OC8OCC(O)C(O)C8O)C7OC7OC(CO)C(O)C(O)C7O)[C@@](C)(C=O)C6CC[C@@]5(C)[C@]3(C)C[C@H]4O)C(OC3OC(C)C(OC4OCC(O)C(OC5OCC(O)C(O)C5O)C4O)C(O)C3O)C2O)C(O)C1OC1OCC(O)C(O)C1O (stereo partly shown) [SO1832]
- endosomal escape enhancing activity [2]: activity was confirmed

Molecule: CC(=O)OC1C(C)OC(OC2C(C)OC(OC(=O)[C@]34CCC(C)(C)CC3C3=CCC5[C@@]6(C)CC[C@H](OC7OC(C(=O)O)C(O)C(OC8OCC(O)C(O)C8O)C7OC7OC(CO)C(O)C(O)C7O)[C@@](C)(C=NNC(=O)CCCCCN7C(=O)CC(SCCO)C7=O)C6CC[C@@]5(C)[C@]3(C)C[C@H]4O)C(OC3OC(C)C(OC4OCC(O)C(OC5OC(CO)C(O)C(O)C5O)C4O)C(O)C3O)C2O)C(O)C1OC1OCC(O)C(O)C1O (stereo partly shown) [SO1861-EMCH (blocked)]
- time to 50% release of saponin [3]: 12 h

Molecule: CC(=O)OC1C(C)OC(OC2C(C)OC(OC(=O)[C@]34CCC(C)(C)CC3C3=CCC5[C@@]6(C)CC[C@H](OC7OC(C(=O)O)C(O)C(OC8OCC(O)C(O)C8O)C7OC7OC(CO)C(O)C(O)C7O)[C@@](C)(/C=N/NC(=O)CCCCCN7C(=O)C=CC7=O)C6CC[C@@]5(C)[C@]3(C)C[C@H]4O)C(OC3OC(C)C(OC4OCC(O)C(OC5OC(CO)C(O)C(O)C5O)C4O)C(O)C3O)C2O)C(O)C1OC1OCC(O)C(O)C1O (stereo partly shown) [SO1861-EMCH]
- cell killing ([4]; A2058 (EGFR-), titrated on fixed 5 pM bivalent VHH-EGFR-dianthin): not effective
- cell killing ([4]; A2058 (EGFR-), titrated on fixed 10 pM matuzumab-dianthin): not effective
- IC50 ([4]; A2058 (EGFR-/CD71+), titrated on fixed 10 pM CD71mab-saporin): 1.5 µM
- IC50 ([5]; A431 (EGFR++), titrated on fixed 5 pM bivalent VHH-EGFR-dianthin, read-out: cell killing IC50): 1.5 µM
- IC50 ([5]; A431 (EGFR++), titrated on fixed 10 pM cetuximab-saporin, read-out: cell killing IC50): 1 µM
- IC50 ([5]; A431 (EGFR++), titrated on fixed 10 pM matuzumab-dianthin, read-out: cell killing IC50): 1.5 µM
- IC50 ([5]; A431 (EGFR++/CD71+), titrated on fixed 10 pM CD71mab-saporin, read-out: cell killing IC50): 2 µM

Molecule: GE1741
- endosomal escape enhancing activity [2]: activity was confirmed

Molecule: QS-17 [QS17]
- CMC [1]: 70 ± 7 µM

Molecule: QS-21 [QS21]
- endosomal escape enhancing activity [2]: activity was confirmed
- CMC [1]: 75 ± 8 µM

Molecule: SO1700
- endosomal escape enhancing activity [2]: activity was confirmed

Molecule: SO1730
- endosomal escape enhancing activity [2]: activity was confirmed

Molecule: SO1772
- endosomal escape enhancing activity [2]: activity was confirmed

Molecule: SO1861
- IC50 ([6]; SK-BR-3 (EGFR+), SO1861 titrated on fixed 50 pM VHH-EGFR-dianthin): 0.7 µM
- IC50 ([6]; SK-BR-3 (HER2++/CD71+), SO1861 titrated on fixed 50 pM VHH-CD71-dianthin): 0.2 µM
- IC50 ([6]; SK-BR-3 (HER2++/CD71+), SO1861 titrated on fixed 50 pM VHH-HER2-dianthin): 0.2 µM
- IC50 ([4]; A2058 (CD71+), SO1861 titrated on fixed 50 pM VHHCD71-dianthin): 0.2 µM
- cell killing IC50 ([4]; A2058 (EGFR-), SO1861 titrated on fixed 50 pM VHHEGFR-dianthin): no activity
- IC50 ([4]; A2058 (HER2+/-), SO1861 titrated on fixed 50 pM VHH-HER2-dianthin): 0.7 µM
- endosomal escape enhancing activity [2]: activity was confirmed
- IC50 ([5]; A431 (CD71+), SO1861 titrated on fixed 50 pM VHHCD71-dianthin, read-out: cell killing IC50): 0.2 µM
- IC50 ([5]; A431 (EGFR++), SO1861 titrated on fixed 50 pM VHHEGFR-dianthin, read-out: cell killing IC50): 0.4 µM
- cell killing IC50 ([5]; A431 (HER2+/-), SO1861 titrated on fixed 50 pM VHH-HER2-dianthin): no activity
- IC50 ([5]; A431, SO1861 alone, read-out: SO1861 tolerated concentration IC50): 1 µM
- CMC value ([1]; native SO1861 in PBS): 185 µM
- IC50 ([7]; MDA-MB-468 (EGFR++), SO1861 titrated on fixed 50 pM VHH-EGFR-dianthin): 0.3 µM
- IC50 ([7]; MDA-MB-468 (EGFR++), titrated on fixed 1 pM or 5 pM bivalentVHH-EGFR-dianthin): 1 µM
- IC50 ([7]; MDA-MB-468 (HER2-/CD71+), SO1861 titrated on fixed 50 pM VHH-CD71-dianthin): 0.2 µM
- cell killing IC50 ([7]; MDA-MB-468 (HER2-/CD71+), SO1861 titrated on fixed 50 pM VHH-HER2-dianthin): no enhanced activity compared to SO1861 alone

Molecule: SO1904
- endosomal escape enhancing activity [2]: activity was confirmed

Molecule: cetuximab-saporin (antibody)
- cell killing on MDA-MB-468 (EGFR++), alone (EGFR (human)): 300 pM

From patent US20250295800A1, “CONJUGATE OF A SINGLE DOMAIN ANTIBODY, A SAPONIN AND AN EFFECTOR MOLECULE, PHARMACEUTICAL COMPOSITION COMPRISING THE SAME, THERAPEUTIC USE OF SAID PHARMACEUTICAL COMPOSITION” (SAPREME TECHNOLOGIES B.V., priority 2021, published 2025)
